# Test results: patent US20050074819A1, “Screening method of drug for treatment of neuropathic pain” (JAPAN HEALTH SCIENCES FOUNDATION, priority 2003, published 2005)
# What was measured:
# [1] = system: male Wistar rats with L5 spinal nerve injury; experiment: Tactile allodynia after L5 spinal nerve injury, von Frey paw withdrawal threshold, intrathecal injection; format: in vivo, rat; settings: for paw withdrawal threshold 45 min after injection: ipsilateral hindpaw
# Experimental: (§1) We used the spinal nerve injury model (Kim, S. H. & Chung, J. M. An experimental model for peripheral neuropathy produced by segmental spinal nerve ligation in the rat. Pain 50, 355-363. (1992)) with some modifications; a unilateral L5 spinal nerve of male Wistar rats was tightly ligated and cut just distal to the ligature. The mechanical allodynia was assessed in naive and nerve-injured rats using calibrated von Frey filaments (0.4-15.1 g). Rats were injected intrathecally with P2XR antagonists, TNP-ATP and PPADS (Sigma-RBI), and antisense and mismatch ODN. For the experiments in FIG. 5, the cultured microglia (see Supplementary Information 1) that had been pre-incubated with or without ATP (50 μM) were injected intrathecally in normal rats. Full details of experimental methods are as follows.
# (§2) A unilateral L5 spinal nerve of male Wistar rats was tightly ligated and cut just distal to the ligature. To assess the mechanical allodynia, the calibrated von Frey filaments (0.4-15.1 g) were applied to the plantar surface of the hindpaw from below the mesh floor. The 50% paw withdrawal threshold was determined using the up-down method (Chaplan, S. R., Bach, F. W., Pogrel, J. W., Chung, J. M. & Yaksh, T. L. Quantitative assessment of tactile allodynia in the rat paw. J Neurosci Methods 53, 55-63, 1994). Rats were implanted with a PE-10 polyethylene tube to the lumber enlargement (Yaksh, T. L., Jessell, T. M., Gamse, R., Mudge, A. W. & Leeman, S. E. Intrathecal morphine inhibits substance P release from mammalian spinal cord in vivo. Nature 286, 155-157, 1980) for intrathecal injection of P2XR antagonists [2′,3′-O-(2,4,6-trinitrophenyl)adenosine 5′-triphosphate (TNP-ATP) (Sigma-RBI) and pyridoxalphosphate-6-azophenyl-2′,4′-disulphonic acid (PPADS) (Sigma-RBI)], P2X4R antisense or mismatch ODN. We confirmed that PPADS and TNP-ATP used in the present study show biological activity to inhibit effects of α,β-methylene ATP in vitro and in vivo. The 16-base antisense ODN endcapped with phosphorothioate linkages were designed according to the primary sequence of the rat P2X4R cDNA (X87763). The sequence of the P2X4R antisense and mismatch ODN was 5′-CAGCCCGCCATGGCTC-3′ (SEQ ID NO: 3) and 5′-ACCGCCGCCAGTGCCT-3′ (SEQ ID NO: 4), respectively. The mismatch ODN served as a control. Rats were injected intrathecally with antisense ODN (5 nmol 10 μl^−1) and mismatch ODN (5 nmol 10 μl^−1) using a 25-μl Hamilton syringe with 28-gauge needle once a day from day 0 (immediately after nerve injury) to day 6. On day 7, paw withdrawal threshold of antisense ODN- and mismatch ODN-treated rats were tested. After the test, to quantify the levels of P2X4R protein in the spinal cord in both groups using Western blot analysis, the membrane fraction from the ipsilateral spinal cord segments L4-L6 was prepared. For the experiments in which cultured microglia were administered intrathecally, the cultured microglia were pre-incubated with ATP (50 μM) or PBS for 1 hr at 37° C. immediately prior to administration. Microglia with their supernatant were injected intrathecally in normal rats and paw withdrawal threshold was tested 1, 3 and 5 hr later. TNP-ATP (10 μM) was preincubated with microglia starting 10 min prior to ATP application.
# normal rats = experiment: Tactile allodynia in normal rats after intrathecal administration of ATP-stimulated cultured microglia; format: in vivo, rat
# Experimental: as §1
# as §2, with “On day 7, paw withdrawal threshold of antisense ODN- and mismatch ODN-treated rats were tested.” left out, “For the experiments in which cultured microglia were administered intrathecally, the cultured microglia were pre-incubated with ATP (50 μM) or PBS for 1 hr at 37° C. immediately prior to administration. Microglia with their supernatant were injected intrathecally in normal rats and paw withdrawal threshold was tested 1, 3 and 5 hr later. TNP-ATP (10 μM) was preincubated with microglia starting 10 min prior to ATP application.” left out
# [2] = system: effects of α,β-methylene ATP; experiment: Check of biological activity against effects of α,β-methylene ATP in vitro and in vivo
# Experimental: A unilateral L5 spinal nerve of male Wistar rats was tightly ligated and cut just distal to the ligature. To assess the mechanical allodynia, the calibrated von Frey filaments (0.4-15.1 g) were applied to the plantar surface of the hindpaw from below the mesh floor. The 50% paw withdrawal threshold was determined using the up-down method (Chaplan, S. R., Bach, F. W., Pogrel, J. W., Chung, J. M. & Yaksh, T. L. Quantitative assessment of tactile allodynia in the rat paw. J Neurosci Methods 53, 55-63, 1994). Rats were implanted with a PE-10 polyethylene tube to the lumber enlargement (Yaksh, T. L., Jessell, T. M., Gamse, R., Mudge, A. W. & Leeman, S. E. Intrathecal morphine inhibits substance P release from mammalian spinal cord in vivo. Nature 286, 155-157, 1980) for intrathecal injection of P2XR antagonists [2′,3′-O-(2,4,6-trinitrophenyl)adenosine 5′-triphosphate (TNP-ATP) (Sigma-RBI) and pyridoxalphosphate-6-azophenyl-2′,4′-disulphonic acid (PPADS) (Sigma-RBI)], P2X4R antisense or mismatch ODN. We confirmed that PPADS and TNP-ATP used in the present study show biological activity to inhibit effects of α,β-methylene ATP in vitro and in vivo. […] After the test, to quantify the levels of P2X4R protein in the spinal cord in both groups using Western blot analysis, the membrane fraction from the ipsilateral spinal cord segments L4-L6 was prepared. […]
# P2X4Rs = molecular target: T1, P2X4Rs (Rattus norvegicus, UniProt P51577); experiment: Intracellular Ca2+ imaging (fura-2) of ATP-evoked response in primary cultured microglia; format: cell-based; settings: for ATP-evoked increase in 340/360 ratio (fura-2): 10 min before and during ATP (50 μM, 10 s)
# T1 construct: mixed glial culture was prepared from neonatal Wistar rats; endogenous in cells; host or cells: primary cultured microglia from neonatal Wistar rats
# T1 sequence (P51577 1-388): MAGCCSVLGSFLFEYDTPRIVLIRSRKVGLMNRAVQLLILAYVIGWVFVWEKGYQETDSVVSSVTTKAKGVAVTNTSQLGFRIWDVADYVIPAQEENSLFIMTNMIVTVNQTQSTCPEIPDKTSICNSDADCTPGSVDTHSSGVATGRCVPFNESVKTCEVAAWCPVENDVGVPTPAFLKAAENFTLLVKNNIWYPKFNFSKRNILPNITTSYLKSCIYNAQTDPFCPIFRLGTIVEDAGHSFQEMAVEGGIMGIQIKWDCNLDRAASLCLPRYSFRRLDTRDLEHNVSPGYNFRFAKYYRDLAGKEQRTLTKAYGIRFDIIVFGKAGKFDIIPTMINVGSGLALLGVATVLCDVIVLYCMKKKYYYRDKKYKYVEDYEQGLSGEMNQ
# Source text: As P2X4Rs are reported to be highly permeable to Ca^2+ (Khakh, B. S. et al. International union of pharmacology. XXIV. Current status of the nomenclature and properties of P2X receptors and their subunits. Pharmacol Rev 53, 107-118, 2001), we investigated whether the P2X4Rs on these microglia were functional by applying the agonist ATP and monitoring the level of intracellular Ca^2+ ([Ca^2+]i) in individual cells using the Ca^2+-sensitive fluorescent dye fura-2.
# The detailed procedures are as follows. Rat primary cultured microglia were prepared according to the method described previously (Nakajima, K. et al. Identification of elastase as a secretory protease from cultured rat microglia. J Neurochem 58, 1401-1408, 1992). In brief, mixed glial culture was prepared from neonatal Wistar rats and maintained for 10-16 days in DMEM with 10% fetal bovine serum. Microglia were obtained as floating cells over the mixed glial culture. The floating cells were collected by a gentle shake and transferred to appropriate dishes or glasses, and then the microglia attached to them were used for RT-PCR, intracellular Ca^2+ imaging, immunocytochemistry.
# [3] = system: rat model of postoperative pain; settings: administration at the incision area, effective only before surgical operation; cited from earlier work
# nociceptive behaviours = settings: intrathecal 30 or 100 nmol; cited from earlier work
# P2X4R protein [4] = experiment: Western blot of P2X4R protein in spinal cord membrane fraction after intrathecal ODN treatment; format: in vivo, rat; settings: 5 nmol intrathecal once a day for 7 days, immunoblot
# Experimental: A unilateral L5 spinal nerve of male Wistar rats was tightly ligated and cut just distal to the ligature. To assess the mechanical allodynia, the calibrated von Frey filaments (0.4-15.1 g) were applied to the plantar surface of the hindpaw from below the mesh floor. The 50% paw withdrawal threshold was determined using the up-down method (Chaplan, S. R., Bach, F. W., Pogrel, J. W., Chung, J. M. & Yaksh, T. L. Quantitative assessment of tactile allodynia in the rat paw. J Neurosci Methods 53, 55-63, 1994). […] After the test, to quantify the levels of P2X4R protein in the spinal cord in both groups using Western blot analysis, the membrane fraction from the ipsilateral spinal cord segments L4-L6 was prepared. […]
# The membrane fraction from spinal cord segments L4-L6 ipsilateral or contralateral to the nerve injury was used. […] The blots were detected using a chemiluminescence method (ECL system; Amersham) and exposed to autoradiography films (Hyperfilm-ECL; Amersham).
# P2X4R protein [5] = experiment: Immunofluorescence intensity of P2X4R protein in individual dorsal horn microglia after ODN treatment; format: in vivo, rat; settings: 5 nmol intrathecal once a day for 7 days
# Source text: (§3) Transverse L5 spinal cord sections (30 μm) were cut and processed for immunohistochemistry using P2X4R antibody (Alomone). Markers of microglia, OX42 (Chemicon) and iba1 (gifted from S. Kohsaka); astrocytes, GFAP (Boehringer Mannheim); spinal cord neurones, NeuN (Chemicon) and MAP2 (Chemicon) were used to identify the type of P2X4R-positive cells. To assess immunofluorescence staining of cells quantitatively, we measured the immunofluorescence intensity of the P2X4R or OX42 as the average pixel intensity within each cell. Full details of experimental methods are as follows.
# (§4) Transverse L5 spinal cord sections (30 μm) were incubated for 2 hr at room temperature in a blocking solution (3% normal goat serum) and then incubated for 48 hr at 4° C. in the primary antibody for P2X4R (anti-P2X4 receptor, 1:500, Alomone). […] The spinal cord sections were analysed using a MicroRadiance Confocal Imaging System (Bio-Rad) and an Olympus IX70 microscope equipped for epifluorescence. […] Microglia, as identified by OX42 immunofluorescence were outlined, and the immunofluorescence intensity (using a 9-bit scale) of the P2X4R or OX42 was determined as the average pixel intensity within each cell. Background fluorescence intensity was determined and was subtracted from the value obtained for microglia.
# [6] = system: microglia in the dorsal horn; experiment: Number of microglia and OX42 immunofluorescence in dorsal horn after ODN treatment; format: in vivo, rat; settings: 5 nmol intrathecal once a day for 7 days
# Source text: as §3, §4
# [7] = 5 nmol intrathecal once a day for 7 days, tested day 7
# [8] = 30 nmol intrathecal 5 hr after ATP-stimulated microglia
molecule,measurement,setting,value
"5′-ACCGCCGCCAGTGCCT-3′ (DNA, backbone and methylation of C not given here; end-capped with phosphorothioate linkages) [mismatch ODN]",paw withdrawal threshold compared with untreated controls,[1]; [7],not different
"2′,3′-O-(2,4,6-Trinitrophenyl) Adenosine 5′-Triphosphate [TNP-ATP]",effect on allodynia caused by ATP-stimulated microglia,normal rats; [8],reversed the allodynia
same,time of peak increase in paw withdrawal threshold after injection,normal rats; [8],45 to 75 min
same,decrease in paw withdrawal threshold caused by ATP-stimulated microglia,normal rats; 10 μM together with ATP (50 μM) in the microglia pre-incubation,prevented
same,"biological activity on effects of α,β-methylene ATP",[2],inhibit
same,ATP-evoked increase in 340/360 ratio (fura-2),P2X4Rs; 10 μM,suppressed
same,paw withdrawal threshold on the side contralateral to the nerve injury,"[1]; 30 nmol intrathecal, 45 min after injection",14.3 ± 0.8 g
same,time of peak increase in paw withdrawal threshold after injection,"[1]; 30 nmol intrathecal, nerve-injured rats",about 45 min
same,effect on tactile allodynia,"[1]; day 7, 30 nmol intrathecal, at peak of effect",reversed
same,dose producing half-maximum effect on paw withdrawal threshold,"[1]; day 7, intrathecal",8.1 nmol
same,paw withdrawal threshold 45 min after injection,"[1]; day 7 after nerve injury, 30 nmol intrathecal",14.6 ± 0.5 g
same,recovery of paw withdrawal threshold,"[1]; day 14, 30 nmol intrathecal, 45 min after injection",73%
same,dose producing half-maximum effect on paw withdrawal threshold,"[1]; day 14, intrathecal",15.5 nmol
same,paw withdrawal threshold 45 min after injection,"[1]; day 14 after nerve injury, 30 nmol intrathecal",11.6 ± 1.3 g
same,motor behaviour following administration,[1]; intrathecal,no alteration
"Cc1nc(N=Nc2ccc(S(=O)(=O)O)cc2S(=O)(=O)O)c(COP(=O)(O)O)c(C=O)c1O [PPADS, Pyridoxalphosphate-6-azophenyl-2′,4′-disulphonic acid]","biological activity on effects of α,β-methylene ATP",[2],inhibit
same,allodynia in a rat model of postoperative pain,[3],suppressed allodynia
same,ATP-evoked increase in 340/360 ratio (fura-2),P2X4Rs; 10 μM,unaffected
same,"nociceptive behaviours (intrathecal α,β-methylene ATP, second phase of formalin test, bee venom)",nociceptive behaviours,suppress
same,effect on paw withdrawal threshold,"[1]; day 7, 30 or 100 nmol intrathecal",no effect
same,effect on paw withdrawal threshold,"[1]; day 14, 30 or 100 nmol intrathecal",no effect
CCOc1ccc(Nc2ccc(/C(=C3C=C/C(=[N+](/CC)Cc4cccc(S(=O)(=O)[O-])c4)C=C/3C)c3ccc(N(CC)Cc4cccc(S(=O)(=O)[O-])c4)cc3C)cc2)cc1.[Na+] [brilliant blue G],ATP-evoked increase in 340/360 ratio (fura-2),P2X4Rs; 100 nM,not altered
"5′-CAGCCCGCCATGGCTC-3′ (phosphorothioate end caps, number of linkages not given here) [P2X4R antisense ODN]",decrease of P2X4R protein level in spinal cord homogenates versus mismatch ODN,P2X4R protein [4],32.0±4.8%
same,decrease of immunofluorescence intensity of P2X4R protein in individual microglia versus mismatch ODN,P2X4R protein [5],37.1±0.2%
same,level of OX42 immunofluorescence per individual microglia versus mismatch ODN,[6],nor was there a difference
same,number of microglia in the dorsal horn versus mismatch ODN,[6],no difference
same,nerve injury-induced decrease in paw withdrawal threshold compared with mismatch ODN,[1]; [7],significantly less
same,recovery of paw withdrawal threshold towards the baseline level prior to nerve injury,[1]; [7],47.4±8.3%
"Nc1ncnc2c1ncn2[C@@H]1O[C@H](COP(=O)(O)OP(=O)(O)OP(=O)(O)O)[C@@H](O)[C@H]1O [ATP, adenosine 5′-triphosphate]",paw withdrawal threshold after intrathecal administration,"normal rats; normal rats, ATP 50 μM, tested 1, 3 and 5 hr later",unaffected
same,340/360 emission ratio for fura-2 ([Ca2+]i),"P2X4Rs; agonist 50 μM, 10 s",transient increase
